Measurements from patent US20250314668A1, “DNAZYMES FOR SENSING AND IMAGING TARGET MOLECULES” (BOARD OF REGENTS, THE UNIVERSITY OF TEXAS SYSTEM, priority 2024, published 2025).
In the oligonucleotide strings, read from the 5' end, every base follows the letter of its sugar. An asterisk marks phosphorothioate; unmarked linkages are phosphodiester. Other units and linkages are bracketed, terminal groups are in braces. A string of capitals states the bases alone. d = 2'-deoxy (DNA); m = 2'-O-methyl

Key:
[1] = test system: SH-SY5Y cells; test: Cell death in FDX1 regulated SH-SY5Y cells with Aβ-Cu treatment; format: cell-based; settings: FDX1 knocked down cells; 25 µM Tempol or 100 μM Trolox
Text: FIGS. 21A-21C depict cell death in FDX1 regulated SH-SY5Y cells with Aβ-Cu treatment. […] For all graphs, ****p<0.0001, ***p<0.001, **p<0.01, and ns is p>0.05.
Both oxidative stresses and proteotoxic stresses mediated cuproptosis were also observed in neurons during copper overload by elesclomol (ES), which is a copper ionophore, contributing to neuronal death. The high redox properties of copper can promote the Aβ-induced oxidative stress and subsequent neuronal death. […] The hypothesis is that the property of Aβ can be acted as a copper ionophore is part of what contributes to the pathological effects of cuproptosis in AD. To explore more about whether cuproptosis is related to AD neurodegeneration and understand the role of Aβ-Cu in neuronal death, the viability of SH-SY5Y cells with FDX1 knocked down by RNAi were monitored by stimulating with different CuCl2 concentration and 10 μM Aβ for overnight. […] Cu^2+ ions bound to Aβ are consistently more toxic to neuronal cells than Aβ in the absence of Cu^2+ ions.

[2] = PAGE gel activity assays of Fe^3+ B12 DNAzyme (cleavage site, truncation, pH, buffer, mutation combinations, selectivity); format: biochemical; settings: presence of Fe^3+
Text: RNA Cleavage Dependence of Fe^2+ H5 and Fe^3+ B12 DNAzymes: To investigate the Fe^2+ H5 and Fe^3+ B12 DNAzymes, various cleavage site modifications were incorporated into the substrate strands. The original Fe^2+ H5 DNAzyme was combined with Fe^2+ H5 substrate strands containing either a 2′-hydroxyl (2′OH), 2′-hydrogen (2′H), or 2′O-methyl (2′OMe) at the cleavage site. The original Fe^2+ H5 DNAzyme cleaves the Fe^2+ H5 substrate strand containing 2′OH at the cleavage site in the presence of Fe^2+ under anaerobic conditions. […] Similarly, the original Fe^3+ B12 DNAzyme was combined with Fe^3+ B12 substrate strands containing either 2′OH, 2′H, or 2′OMe at the cleavage site. The original Fe^3+ B12 DNAzyme cleaves the Fe^3+ B12 substrate strand containing 2′OH at the cleavage site in the presence of Fe^3+. […]
Truncations of Fe^2+ H5 and Fe^3+ B12 DNAzymes' Binding Arms: To further investigate the Fe^2+ H5 and Fe^3+ B12 DNAzymes, the DNAzymes were truncated at the 5′ and 3′ ends and tested using the FAM-labeled original substrate strand through activity assays assessed by PAGE gel. […]
Similarly, the pH dependency of Fe^3+ B12 was tested across a range of pH 4.0 to 6.0 with 100 μM FeCl3. […] Fluorescence intensity was monitored over time using a 5′ Alexa Fluor™ 647-labeled substrate and a 3′ Iowa Black™ RQ quencher-labeled DNAzyme at an enzyme-to-substrate ratio of 1:1. […]

[3] = test system: HepG2 or Hela cells; test: Simultaneous imaging of labile Fe^2+ and Fe^3+ in living cells treated with Tf or DFO; format: cell-based
Experimental: For delivery of DNAzyme sensors using PEI (66, 67), the corresponding Fe(II)-H5-ErS, Fe(II)-H5-iErS, Fe(III)-B12-ErS, and Fe(III)-B12-iErS (final concentration of 10 μM) were mixed in the Fe^2+ buffer and Fe^3+ buffer separately. The mixtures were annealed at 95° C. for 5 min and stored at room temperature to allow full hybridization. PEI (25 kDa) was dissolved in water at 1 mg/ml. […] The normal cell medium was replaced with iron-deficient medium before the PEI-ErS or PEI-iErS was added to the cells grown in the plates.
After incubating HepG2 cells with PEI-ErS or PEI-iErS complex for 4 hours, cells were washed with phosphate-buffered saline (PBS) twice to remove excess amounts of complexes in medium. Then, the cells were stained by Hoechst 33258 for 15 min. Images were obtained using a Zeiss LSM 880 confocal microscope at 63× oil objective lens with numerical aperture 1.40 and immersion medium Immersol 518 F (Zeiss) at the UIUC IGB Core Facilities. Florescence emission of Hoechst 33258 was measured over 450 to 500 nm with excitation at 401 nm. Fe(II)-H5 was excited by 488 nm and measured over 500 to 550 nm, and Fe(III)-B12 was excited at 633 nm and measured over 640 to 700 nm. A laser power of 67% and pinhole size of 1 […] (AU) were used for the cellular images. Acquired images were analyzed by ImageJ using JACoP (88, 89). No background subtraction, Z-stacks, Gaussian blur filter, or change thresholds were performed for visualizing the figures. For cell fluorescence quantification, the study quantified the average fluorescence signals intensity in five cells (for TurboFect transfected cells) or five LysoTracker-labeled regions in different cells (for PEI transfected cells), per picture and three pictures per group with Image J (88), for the statistical comparison between groups.
Simultaneous imaging of labile Fe^2+ and Fe^3+ in living cells: HepG2 or Hela cells were cultured in glass-bottom dishes until about 70% confluence. The cells were pretreated with iron-deficient MEM containing either 100 μM DFO, 100 μM ferric ammonium citrate, […] holo-Tf, or 50 μM Tf for 4 hours, and then, the medium was replaced with an iron-deficient MEM containing PEI-ErS or PEI-iErS complexes or Opti-MEM containing 1 μl of TurboFect transfection reagent as described above for 4 hours. Before imaging, the cells were stained by LysoTracker Red and Hoechst 33258 for 15 min. After washing with PBS, the cells were incubated in iron-deficient MEM or regular DMEM, respectively, during the imaging.
Data processing and statistical analysis: To have a direct comparison of the iron amount between groups, the background signals were normalized by subtracting the fluorescence signals in iErS groups from the ErS groups (F-F0). No Z-stacks or change thresholds were used for statistical analysis. Graphs were plotted with GraphPad (GraphPad Software Inc.) or Origin (OriginLabs Corporation) and correspond to a single experiment. Bars represent means±SEM. Two-tailed distribution and two-sample equal variance t test were used for analyzing significance. Dixon's Q tests were performed to identify and exclude outliners. *P<0.05, **P<0.01, and ***P <0.001. […] The presented data described the quantification from single representative replicates from those biological replicates.

[4] = test system: cells; test: Fe signal changes detected with DNAzyme sensors and flow cytometry; format: cell-based; settings: treated with Transferrin
Text: Preliminary results: The study detected the Fe signal changes with DNAzyme sensors and flow cytometry.

[5] = test system: corpus callosum brain region; test: Iron changes in the cuprizone model of Multiple Sclerosis; format: in vivo, mice; settings: over the course of cuprizone treatment; back to normal upon removal
Experimental: The study also co-stained the sensors with other antibodies to identify cell identities in neuron degenerative diseases, such as Alzheimer's disease. The antibody staining was performed before staining iron sensors. After traditional immunochemistry staining (need to avoid antigen exposures that require H2O2 or other oxidative reagents), brain slices were changed into the BisTris buffer for iron sensors and incubated with iron sensors for 30 minutes. Then the brain slices were mounted onto slices and imaged immediately to minimize the background cleavage or degradation of the sensors. The iron redox changes in specific cell types were evaluated by taking images with a confocal microscope and analyzing the iron signal that colocalized with specific antibodies. […] The study also observed a decrease in iron levels in microglial cells of wildtype mice brains in the hippocampal region, but an increase in iron levels in 3×Tg mice brains. […] More detailed investigations are still going on to test how they are correlated with this disease process.
With a similar technique, the iron changes were studied with the cuprizone model of Multiple Sclerosis as well. […] The Fe^3+/Fe^2+ elevation was back to normal upon the removal of the chemical, and remyelination of the mice brains.

[6] = test system: HepG2 cells; test: Ferroptosis-induced fluctuations of labile Fe^2+ and Fe^3+ pools (RSL3); format: cell-based
Experimental: Ferroptosis-induced fluctuations of labile Fe^2+ and Fe^3+ pools: HepG2 cells were treated with 1 μM RSL3 in normal MEM at different time points (0, 2, 4, 6, 8, and 10 hours). Then, the cell medium was replaced by iron-deficient MEM containing PEI-ErS or PEI-iErS and incubated in a 37° C., 5% CO2 incubator for another 4 hours. Before imaging, the cells were stained by LysoTracker Red and Hoechst 33258 for 15 min. After washing with PBS, the cells were incubated in iron-deficient MEM during the imaging.

[7] = test system: HepG2 cells; test: MTT assay of cytotoxicity of RSL3; format: cell-based; settings: 1 μM RSL3, over 8 hours
Experimental: To measure the cytotoxicity of RSL3 to HepG2 cells, a standard MTT assay was used. HepG2 cells were seeded at a density of 15,000 cells per well in 96-well plates. When the cells grew to 80% confluence, the medium was replaced by the normal MEM containing 1 μM RSL3 at different time points (0, 2, 4, 6, 8, and 10 hours). Afterward, the cell medium was replaced by the iron-deficient MEM containing PEI-ErS or PEI-iErS, incubated in a 37° C., 5% CO2 incubator for another 4 hours. The absorbance at 570 nm was measured with a SpectraMax M2 microplate reader to obtain the MTT assay readings. The untreated cells were set as a blank control for normalization.

[8] = test system: cultured cell lines; test: Iron redox changes in cultured cell lines with ferroptosis inducers and NCOA4 regulators; format: cell-based
[9] = 5 μM Tf group, iron-deficient medium

CC1(C)CC(O)CC(C)(C)N1[O] [Tempol]
rescue of Aβ-Cu induced cell death by ROS scavenger [1]: fail to fully rescue

Fe^3+ B12 Original Substrate (2′OMe) (dCdTdCdTdAdTdTdAmGdGdGdAdGdAdCdTdCdGdCdAdTdGdCdCdGdC)
cleavage by the original Fe^3+ B12 DNAzyme [2]: does not cleave

transferrin [Tf]
increase of Fe^2+ sensor signal [3, 9]: 1.9 fold
increase of Fe^3+ sensor signal [3, 9]: 1.6 fold
increase for both Fe^3+ and Fe^2+ ([3]; normal cell media): around 4 fold
change of the Fe^3+/Fe^2+ ratio ([3]; treated cells): No significant change
cells with elevated fluorescence intensity (moved from Q4 to Q2) [4]: More than 20%

O=C(NN=C1CCCCC1)C(=O)NN=C1CCCCC1 [cuprizone]
iron redox (Fe^3+/Fe^2+) in corpus callosum [5]: elevated iron redox

COC(=O)c1ccc([C@@H]2c3[nH]c4ccccc4c3C[C@@H](C(=O)OC)N2C(=O)CCl)cc1 [RSL3, RAS-selective lethal 3]
increase of Fe^2+ ([6]; 1 μM RSL3, from 0 to 2 hours, LysoTracker-labeled region): 2.3 fold
increase of Fe^3+ ([6]; 1 μM RSL3, from 0 to 4 hours, LysoTracker-labeled region): 2.8 fold
increase of Fe^2+ ([6]; 1 μM RSL3, from 2 to 4 hours, LysoTracker-labeled region): 4.3 fold
Fe^3+/Fe^2+ ratio (Fe redox) during ferroptosis ([6]; RSL3-induced ferroptosis, endo-lysosomes): continuous decrease
Fe^2+ and Fe^3+ levels in later stage of ferroptosis ([6]; after 4 hours): both iron levels decreased
MTT assay result [7]: cell death
Fe^2+ and Fe^3+ during induced ferroptosis [8]: increased
Fe^3+/Fe^2+ ratio during induced ferroptosis [8]: decreased

Fe^3+ B12 Original Substrate (2′H) (CTCTATTAGGGAGACTCGCATGCCGC; DNA, backbone not given here)
cleavage by the original Fe^3+ B12 DNAzyme [2]: does not cleave

Cc1c(C)c2c(c(C)c1O)CCC(C)(C(=O)O)O2 (stereo not drawn) [Trolox]
rescue of Aβ-Cu induced cell death by ROS scavenger [1]: fail to fully rescue
